Test results published in patent US12201640B2, “19-nor C3,3-disubstituted C21-n-pyrazolyl steroids and methods of use thereof” (Sage Therapeutics, Inc., priority 2013, dated 2025).
Like-named read-outs stand apart in the source and are kept apart here.

Legend:
GABAA-R = biological target: T1, GABAA-R (Homo sapiens, UniProt P14867+P47870); experiment: Electrophysiological evaluation at GABAA-R (Table 2); assay type: cell-based
T1 sequence (P14867 1-456): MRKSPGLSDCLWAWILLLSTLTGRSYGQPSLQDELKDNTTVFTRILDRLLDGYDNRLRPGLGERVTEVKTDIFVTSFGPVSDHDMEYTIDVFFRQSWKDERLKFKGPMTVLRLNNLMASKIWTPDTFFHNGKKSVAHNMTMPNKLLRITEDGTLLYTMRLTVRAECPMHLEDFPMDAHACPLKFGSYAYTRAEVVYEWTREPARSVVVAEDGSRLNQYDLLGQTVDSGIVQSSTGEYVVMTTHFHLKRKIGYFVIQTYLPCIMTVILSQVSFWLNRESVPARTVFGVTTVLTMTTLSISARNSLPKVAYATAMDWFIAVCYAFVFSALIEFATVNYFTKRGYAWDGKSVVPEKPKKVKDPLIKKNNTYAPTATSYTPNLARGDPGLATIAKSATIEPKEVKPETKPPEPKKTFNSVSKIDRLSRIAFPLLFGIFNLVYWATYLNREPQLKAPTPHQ
T1 sequence (P47870 1-512): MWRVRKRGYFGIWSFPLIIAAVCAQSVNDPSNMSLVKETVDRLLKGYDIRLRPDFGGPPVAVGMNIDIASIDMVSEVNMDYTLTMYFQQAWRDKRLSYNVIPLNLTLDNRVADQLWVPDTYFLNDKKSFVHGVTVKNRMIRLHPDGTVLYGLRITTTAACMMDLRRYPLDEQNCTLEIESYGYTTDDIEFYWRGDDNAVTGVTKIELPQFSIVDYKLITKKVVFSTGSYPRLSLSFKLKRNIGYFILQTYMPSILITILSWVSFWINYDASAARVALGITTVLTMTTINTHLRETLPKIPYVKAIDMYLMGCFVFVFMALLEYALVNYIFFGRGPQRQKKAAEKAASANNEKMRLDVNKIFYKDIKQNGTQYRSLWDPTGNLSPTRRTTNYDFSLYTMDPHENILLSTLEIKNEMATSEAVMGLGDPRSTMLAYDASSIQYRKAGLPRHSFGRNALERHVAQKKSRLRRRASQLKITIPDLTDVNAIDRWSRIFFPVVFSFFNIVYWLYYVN
Description: Patch Clamp Electrophysiology of Recombinant α1β2γ2 and α4β3δ GABAA Receptors
Cellular electrophysiology is used to measure the pharmacological properties of our GABAA receptor modulators in heterologous cell systems. Each compound is tested for its ability to affect GABA mediated currents at a submaximal agonist dose (GABA EC20=2 μM). LTK cells are stably transfected with the α1β2γ2 subunits of the GABA receptor and CHO cells are transiently transfected with the α4β3δ subunits via the Lipofecatamine method. Cells were passaged at a confluence of about 50-80% and then seeded onto 35 mm sterile culture dishes containing 2 ml culture complete medium without antibiotics or antimycotics. Confluent clusters of cells are electrically coupled (Pritchett et al., Science, 1988, 242, 1306-1308.). Because responses in distant cells are not adequately voltage clamped and because of uncertainties about the extent of coupling (Verdoorn et al., Neuron 1990, 4, 919-928.), cells were cultivated at a density that enables the recording of single cells (without visible connections to other cells).
Whole cell currents were measured with HEKA EPC-10 amplifiers using PatchMaster software or by using the high throughput QPatch platform (Sophion). Bath solution for all experiments contained (in mM): NaCl 137 mM, KCl 4 mM, CaCl2 1.8 mM, MgCl2 1 mM, HEPES 10 mM, D-Glucose 10 mM, pH (NaOH) 7.4. In some cases 0.005% cremophor was also added. Intracellular (pipette) solution contained: KCl 130 mM, MgCl2 1 mM, Mg-ATP 5 mM, HEPES 10 mM, EGTA 5 mM, pH 7.2. During experiments, cells and solutions were maintained at room temperature (19° C.-30° C.). For manual patch clamp recordings, cell culture dishes were placed on the dish holder of the microscope and continuously perfused (1 ml/min) with bath solution. After formation of a Gigaohm seal between the patch electrodes and the cell (pipette resistance range: 2.5 MΩ-6.0 MΩ; seal resistance range: >1 GΩ) the cell membrane across the pipette tip was ruptured to assure electrical access to the cell interior (whole-cell patch-configuration). For experiments using the QPatch system, cells were transferred as suspension to the QPatch system in the bath solution and automated whole cell recordings were performed.
Cells were voltage clamped at a holding potential of −80 mV. For the analysis of test articles, GABA receptors were stimulated by 2 μM GABA after sequential pre-incubation of increasing concentrations of the test article. Pre-incubation duration was 30 s and the duration of the GABA stimulus was 2 s. Test articles were dissolved in DMSO to form stock solutions (10 mM). Test articles were diluted to 0.01, 0.1, 1, and 10 μM in bath solution. All concentrations of test articles were tested on each cell. The relative percentage potentiation was defined as the peak amplitude in response to GABA EC20 in the presence of the test article divided by the peak amplitude in response to GABA EC20 alone, multiplied by 100.

male Sprague Dawley rats = experiment: Loss of righting reflex in rats; assay type: in vivo; conditions: Rat IV, 5 mpk
Description: Loss of Righting Reflex in Rats
The plasma pharmacokinetics and a qualitative assessment of sedation were obtained in male
Sprague Dawley rats according to the following procedure. Rats were dosed by intravenous bolus dose (60 seconds) via the foot dorsal vein at doses ranging from 5 to 15 mg/kg in an appropriate vehicle. In order to assess sedation, rats were gently restrained by hand to a lateral position for dose administration. […] If the animal was unable to return to an upright position, the time was recorded as the onset of loss of righting reflex (LRR). […] Sluggish or incomplete righting twice consecutively within a 30 second interval qualifies as a loss of righting reflex. After onset of LRR, animals were assessed every 5 minutes in the same manner. Recovery of righting reflex is defined as the ability of a rat to right itself completely within 20 seconds of being placed in dorsal recumbency. The duration of LRR is defined as the time interval between LRR and the return of righting reflex.

[1] = GABAA-R electrophysiology, read-out: EC50

SMILES	Emax (GABAA-R; GABAA-R electrophysiology) [%]	EC50 (GABAA-R; [1]) [nM]	Duration of Rat LRR (male Sprague Dawley rats)	EC50 (GABAA-R) [nM]
C[C@@]1(O)CC[C@H]2[C@H](CC[C@@H]3[C@@H]2CC[C@]2(C)[C@@H](C(=O)Cn4cccn4)CC[C@@H]32)C1 [SA-13]	0 to 500	500 to 1000		
Cc1cnn(CC(=O)[C@H]2CC[C@H]3[C@@H]4CC[C@@H]5C[C@](C)(O)CC[C@@H]5[C@H]4CC[C@]23C)c1 [SA-6]	0 to 500	100 to 500	A (<15 min)	
C[C@@]1(O)CC[C@H]2[C@H](CC[C@@H]3[C@@H]2CC[C@]2(C)[C@@H](C(=O)Cn4cc(C#N)cn4)CC[C@@H]32)C1 [SA-4]	0 to 500		C (>60 min)	100 to 500
